This passage reports IC50 results from patent publication US7326727B2, “Furanthiazole derivatives as heparanase inhibitors” (Oxford Glycosciences (UK) Ltd., priority 2002, dated 2008).

The first test deals with T1, human heparanase (Homo sapiens, UniProt Q9Y251).
T1 sequence (Q9Y251 158-543 limits assumed): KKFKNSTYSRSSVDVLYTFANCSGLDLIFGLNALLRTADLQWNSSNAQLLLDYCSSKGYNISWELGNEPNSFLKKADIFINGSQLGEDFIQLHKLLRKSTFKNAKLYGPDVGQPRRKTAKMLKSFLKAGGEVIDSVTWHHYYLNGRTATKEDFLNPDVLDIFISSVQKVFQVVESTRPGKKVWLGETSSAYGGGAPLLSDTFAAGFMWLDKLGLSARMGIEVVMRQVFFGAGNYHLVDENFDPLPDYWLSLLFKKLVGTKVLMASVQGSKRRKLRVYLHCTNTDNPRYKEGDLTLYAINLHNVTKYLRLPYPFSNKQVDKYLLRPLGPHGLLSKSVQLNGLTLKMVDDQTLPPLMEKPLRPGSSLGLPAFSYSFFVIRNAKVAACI
T1 sequence (Q9Y251 36-109 limits assumed): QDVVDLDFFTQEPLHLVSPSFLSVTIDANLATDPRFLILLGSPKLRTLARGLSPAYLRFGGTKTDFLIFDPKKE
Briefly: Heparanase assay (bFGF binding to heparan sulphate, 96-well plate). The test is classed as biochemical. Particulars: 2 h at 37° C., pH 5.5, read-out: Inhibition of Heparanase (IC50). The procedure:
Heparanase assay: The assay is based upon the use of the specific binding of basic fibroblast growth factor (bFGF) to heparan sulphate. Heparan sulphate can be detected via binding of bFGF using a horse radish peroxidase-conjugated bFGF antibody.
Nunc Maxisorp 96-well plates are coated for 16 h at RT with 100 μl/well 0.04 mg/ml heparan sulphate in PBS. The wells are then aspirated and blocked for 1 h with 200 μl/well 1% BSA-PBS. Following five washes with 0.01% BSA, 0.05% Tween20 PBS (wash buffer), 100 μl of recombinant human basic FGF (90 ng/ml in 0.1% BSA/PBS) is added per well and the plate is incubated at room temperature for 1 h.
After a further five washes with the wash buffer, 10 μl of test compound (in 10% DMSO) and 90 μl of human heparanase in 100 mM Sodium acetate, 5 mM CaCl2, pH 5.5 are added to each well and the plate incubated for 2 h at 37° C. The wells are washed again with wash buffer and 100 μl of bFGF antibody-horse radish peroxidase conjugate added. The plate is incubated at room temperature for 1 h and washed again five times with wash buffer. 100 μl of TMB peroxidase substrate is added and the colour allowed to develop for 10 min. The reaction is stopped with 50 μl 1M H2SO4 and the colour read at 450 nm on a plate reader.
Turning to “2-[4-[5-[2-Chloro-4-[3-(3,5-bistrifluoromethyl)phenylacryloylamino]phenyl]furan-2-yl]-1,3-thiazol-2-yl]acetic acid [Example 7]”, the IC50 (usually the point on the concentration scale where inhibition reaches its midpoint) turned out to be 400 nM.
For `O=C(O)Cc1nc(-c2ccc(-c3ccc(NC(=O)c4cc5ccccc5s4)cc3Cl)o2)cs1` [Example 11, 2-[4-[5-[2-Chloro-4-[(benzothiophene-2-carbonyl)amino]phenyl]furan-2-yl]-1,3-thiazol-2-yl]acetic acid], the IC50 amounted to 400 nM.
For the compound `COc1cccc(C(=O)Nc2ccc(-c3ccc(-c4csc(CC(=O)O)n4)o3)c(Cl)c2)c1` [Example 21, 2-[4-[5-[2-Chloro-4-[(3-methoxyphenylcarbonyl)amino]phenyl]furan-2-yl]-1,3-thiazol-2-yl]acetic acid], the IC50 was determined as 7000 nM.

Another test relates to human endothelial cells. Briefly: Angiogenesis assay (AngioKit, tubule formation by PECAM-1 staining). Conditions: Endothelial cell, 264 h, AngioKit co-culture, tubule formation on day 11, PECAM-1 staining relative to untreated control. Format: cell-based. An excerpt:
Angiogenesis Assay: A commercial angiogenesis assay for analysing the angiogenic or anti-angiogenic properties of test compounds (AngioKit catalogue no. ZHA-1000, TCS CellWorks Ltd, Buckingham, U.K) was used. In this assay, human endothelial cells were co-cultured with other human cells in a specifically designed medium. The endothelial cells initially form small islands within the culture matrix. They subsequently proliferate and then enter a migratory phase during which they move through the matrix to form threadlike tubule structures. These gradually join up (by 12-14 days) to form networks of […] tubules which closely resemble a capillary bed structure. These tubules stain positive for von Willebrand's Factor, Platelet Endothelial Cell Adhesion Molecule-1 (PECAM-1 or CD31) and Intercellular Adhesion Molecule-2 (ICAM-2).
The assay is supplied as growing cultures at the earliest stage of tubule formation in a 24 well plate format. It is designed so that test compounds and conditioned media can be added to the cultures within individual wells. The resulting effect on tubule formation can then be monitored. Positive and negative test agents are provided in the kit, e.g. Vascular Endothelial Growth Factor (VEGF) and sumarin. All reagents were included as part of the kit and the assay was performed according to the protocol supplied by TCS CellWorks Ltd. Briefly, on day 1, fresh growth medium, medium plus control agent or medium plus test compound was added to the cells and the cultures were incubated at 37° C., 5% CO2. […] The specified medium was changed at days 4, 7 and 9 and the cells were monitored for growth. On day 11, the cells were washed with Dulbecco's Phosphate-Buffered Saline (PBS) and fixed using 70% ethanol (−20° C.) for 30 min at room temperature. After fixing, the cells were washed and treated with blocking buffer, 1% BSA in PBS. The cells were stained for PECAM-1 on the same day, following standard immunohistochemistry procedures well known to those skilled in the art, using mouse anti-human CD31 as the primary antibody and a goat anti-mouse IgG alkaline […] conjugate. Tubule formation was quantitatively assessed by measuring PECAM-1 positive staining using the image analysis program “Matrox inspector” to evaluate the percentage tubule staining relative to an untreated control.
Turning to `O=C(O)Cc1nc(-c2ccc(-c3ccc(NC(=O)c4ccc(OC(F)(F)F)cc4)cc3)o2)cs1` [Example 4], the midpoint of inhibition, the IC50, lay at 200 nM.
`O=C(O)Cc1nc(-c2ccc(-c3ccc(NC(=O)/C=C/c4ccc(Br)cc4)cc3Cl)o2)cs1` [Example 5, 2-[4-[5-[2-Chloro-4-[3-(4-bromo)phenylacryloylamino]phenyl]furan-2-yl]-1,3-thiazol-2-yl]acetic acid] returned an IC50 of 1000 nM.
`O=C(O)Cc1nc(-c2ccc(-c3ccc(NC(=O)/C=C/c4ccc(Cl)cc4Cl)cc3Cl)o2)cs1` [Example 6, 2-[4-[5-[2-Chloro-4-[3-(2,4-dichloro)phenylacryloylamino]phenyl]furan-2-yl]1,3-thiazol-2-yl]acetic acid] yielded a 50% inhibitory concentration (IC50) of 500 nM.
On to `O=C(O)Cc1nc(-c2ccc(-c3ccc(NC(=O)C=Cc4ccccc4)cc3Cl)o2)cs1` [Example 8, 2-[4-[5-[2-Chloro-4-(3-phenylacryloylamino)phenyl]furan-2-yl]-1,3-thiazol-2-yl]acetic acid], for which the IC50 was found to be 15000 nM.
`O=C(O)Cc1nc(-c2ccc(-c3ccc(NC(=O)c4cc5ccccc5s4)cc3Cl)o2)cs1` [Example 11, 2-[4-[5-[2-Chloro-4-[(benzothiophene-2-carbonyl)amino]phenyl]furan-2-yl]-1,3-thiazol-2-yl]acetic acid] gave an IC50 of 20000 nM.
`O=C(O)Cc1nc(-c2ccc(-c3ccc(NC(=O)c4ccc(Cl)c(Cl)c4)cc3Cl)o2)cs1` [Example 18, 2-[4-[5-[2-Chloro-4-[(3,4-dichlorophenylcarbonyl)amino]phenyl]furan-2-yl]-1,3-thiazol-2-yl]acetic acid]: 10000 nM corresponded to half-maximal inhibition (IC50).
On to `O=C(O)Cc1nc(-c2ccc(-c3ccc(NC(=O)c4ccc(OC(F)(F)F)cc4)cc3Cl)o2)cs1` [Example 22, 2-[4-[5-[2-Chloro-4-[(4-trifluoromethoxyphenylcarbonyl)amino]phenyl]furan-2-yl]-1,3-thiazol-2-yl]acetic acid], for which the IC50 came out at 500 nM.
